Results from US20070117864A1, “Composition for preventing and treating hepatoma” (Tokyo University of Agr. & Tech. TLO Co., Ltd., priority 2003, published 2007).

Key:
AH109A cells [1] = assay: cell cycle analysis of hepatoma cells by PI staining and flow cytometry; type: cell-based, rat
Protocol: The effects of 6.25 μM and 12.5 μM ENL on the cell cycle of AH109A cells were analyzed. The AH109A cells were inoculated into a 6-well plate (NUNC) at the density of 2.5×10^5 cells per well, and the cells were cultured for 0, 24 and 48 hours at 37° C. in a CO2 incubator. The AH109A cells cultured under the respective treatment conditions were recovered in 2-ml sampling tubes (Nippon Genetex, Tokyo); these cells were centrifuged for 5 minutes at 1000 rpm (190×g), 4° C., and then washed twice with PBS (−). Subsequently, 300 μl of a PI solution (1 mg propidium iodide (SIGMA)/20 ml 0.1% Triton X-100, 0.1% sodium citrate (Wako Pure Chemical Industries)) was added, and the preparation was dyed by allowing the preparation to kept quietly on ice for 30 minutes with the light blocked. The cell cycle was analyzed with a flow cytometer (EPICS ELITE ESP; Beckman-Coulter, Hialeah, Fla., USA).

AH109A cells [2] = assay: proliferative activity of hepatoma cells by [3H]thymidine incorporation; type: cell-based, rat
Protocol: The proliferative activity of the AH109A cells was evaluated by measuring the incorporation of [^3H]thymidine (20 Ci/mmol, New England Nuclear, Boston, USA) into acid-insoluble fraction, namely, DNA [Yagasaki K., Tanabe T., Ishihara K., and Funabiki R., (1992) Modulation of the proliferation of cultured hepatoma cells by urea cycle-related amino acids. In: Murakami, H., Shirahata S., and Tachibanana H., (ed.) Animal Cell Technology: Basic and Applied Aspects. Vol. 4 (pp. 257-263). Kluwer Academic Publisher, Dordrecht/Boston/London]. […]
The plate was washed twice with 400 μl of 10% TCA; the wash solution was then recovered in Maruemu tubes, and was again subjected to centrifugally separation for 5 minutes at 3000 rpm (1500×g), 4° C., and then solubilized in 0.2N NaOH in 0.1% SDS. was added to the 48-well plate and the cells remaining in the Maruemu tubes at the respective rates of 150 μl and 50 μl, and these were allowed to stand for 30 minutes inside an incubator at 37° C., to dissolve the cells completely. […] 5 ml of an NT scintillator (700 ml of toluene, 300 ml of nonion, 4 g of DPO) was added, and 150 μl of 1N HCl was further added thereto, and it was confirmed that the liquid of the preparation thoroughly shaken had become transparent; then, the radioactivity of the preparation was measured with a liquid scintillation spectrophotometer (LS6500; Beckman, Fullerton, Calif., USA). […]

[3] = ENL treatment for 24 hours, versus 0 μM control

With `O=C1OCC(Cc2cccc(O)c2)C1Cc1cccc(O)c1` (centres unmarked) [Enterolactone, enterolactone] the “effect on the cell cycle” value (AH109A cells [1]; ENL treatment for 0 hours, various concentrations) was “no effect”, the “proportion of the G1 phase” value (AH109A cells [1]; [3]) was “increase” and the “proportion of the S phase” value (AH109A cells [1]; [3]) was “decrease”. The “proliferation of AH109A cells” value (AH109A cells [2]; ENL 50 μM, in vitro) was “almost completely suppressed” and the “inhibitory effect on proliferation, AH109A cells compared with normal M-cells” value (AH109A cells [2]; in vitro comparison) was “stronger inhibitory effect against AH109A cells than normal M-cells”.
